≈ marks a conversion by molar mass, not a printed value. Where “and” joins values, the source holds several entries; their conditions need not be identical. Equal values may be shown once. Read-outs that look alike come from different tables or passages of the source. Marks after values point to notes of the source that are not given here.
Experiments:
[1] = CUPRAC assay (cupric-reducing antioxidant capacity); format: biochemical; settings: concentration of 50 μM, methanolic solutions
Experimental: CUPRAC assay was carried out according to the method described in [44]. First, […] of CuCl2 (C = 10 mM; in water) was mixed with […] of ammonium acetate (pH 7; in water) and neocuproine (C = 75 mM; in ethanol). […] The samples were mixed and incubated for 60 min at room temperature (23 °C). The absorbance of the samples was measured with a UV–Vis spectrophotometer at λ = 450 nm against a blank (containing 0.5 mL of methanol instead of the sample). […] R^2 = 0.9919).

ABTS assay = format: biochemical; settings: 50 μM, methanolic solutions, 7 min of reaction time
Experimental: ABTS assay was conducted according to the procedure of Re et al.. […] The absorbance of the solutions was measured with a UV–Vis spectrophotometer at 734 nm against methanol (the blank). The ability to scavenge ABTS^•+ cation radicals was expressed as the %I of ABTS^•+ and calculated according to the aforementioned equation.

[2] = CABTS = 7 mM, cited from earlier work; for IC50: t = 6 min, read-out: ABTS, IC50; for inhibition: C = 10 μM, t = 7 min, read-out: ABTS radical scavenging activity (%)
[3] = FRAP assay (ferric-reducing antioxidant power); format: biochemical; design: key: (-): Negative values were obtained for these acids; settings: concentration of 50 μM, methanolic solutions
Experimental: FRAP assay was carried out as described in [42]. […] After 8 min of incubation at 23 °C, the absorbance at 595 nm was measured against the blank (containing 0.4 mL of methanol instead of the sample). Ferric-reducing antioxidant activity was expressed as Fe(II) ion equivalents (μM) using the calibration curve obtained for FeSO4 (the standard curve equation: y = 3.4303x − 0.1058; R^2 = 0.9984).

[4] = cited from earlier work
[5] = Cytotoxicity, neutral red (NR) assay; format: cell-based, human; settings: human, 48 h treatment, neutral red assay
Experimental: Briefly, MCF-7 cells were cultured in EMEM (Biological Industries, Israel) medium supplemented with 10% fetal calf serum (Gibco). MDA-MB-231 cells were cultured in Leibovitz‘s L15 (Biological Industries, Beit HaEmek, Israel) medium supplemented with 10% fetal calf serum (Gibco). The MCF-7 cells were incubated in a 5% CO2 atmosphere at 37 °C, whereas the MDA-231 cells were incubated in a 100% air atmosphere at 37 °C.
Cytotoxicity evaluation was conducted to assess the impact of hydroxybenzoic acids on the proliferation of MCF-7 and MDA-MB-231 cells, which was measured via neutral red (NR) assay. In brief, cells were seeded in 96-well microplates (TPP, Switzerland) at a density of 2 × 10^4 cells/well in 100 μL of culture medium. At least three independent experiments in six replicate wells were conducted per concentration. Twenty-four hours after cell seeding, cells were treated with increasing concentrations of hydroxybenzoic acids (0.02–5 mM) for forty-eight hours. After treatment, cells were incubated for 3 h at 37 °C with 100 µL of neutral red solution (stock solution of NR) (Sigma-Aldrich), and then 5 mg/mL of PBS was diluted 1:100 in cell culture medium, incubated for 12 h at 37 °C, and centrifuged to remove any undissolved NR powder. […] After 15 min of gentle shaking, optical density was read at 540 nm with an Infinite M200 plate reader spectrophotometer (Tecan, Austria).

DPPH assay = format: biochemical; settings: methanolic solutions, 60 min of reaction time
Experimental: DPPH assay was measured according to the method described by Rice-Evans. Appropriate volumes of methanolic solutions of the tested hydroxybenzoic acids (C = 30 μM) were mixed with methanol in test tubes to prepare a series of solutions of various concentrations (final volume 1 mL). Then, 2 mL of methanolic solution of DPPH^• (C = 60 μM) was added to each tube; the control contained methanol instead of the sample. The tubes with reaction mixtures were capped, vortexed, and left to stand for 60 min at 23 °C in the dark. The absorbance of the solutions was measured by the use of a Cary 5000 UV–Vis spectrophotometer (Santa Clara, CA, USA) at λ = 516 nm against pure methanol. […] The concentration of the tested hydroxybenzoic acids was plotted against the %I, and the IC50 values (antioxidant concentration that inhibited 50% of DPPH^• radicals) were calculated from the obtained scavenging curves.

[6] = tested on: Pseudomonas aeruginosa (PCM 2720); assay: MIC by serial dilution in agar medium; format: cell-based
Experimental: (§1) The following bacterial strains were used in this study: Escherichia coli (PCM 2857), Pseudomonas aeruginosa (PCM 2720), Bacillus subtilis (PCM 2850), Staphylococcus aureus (PCM 2267), Salmonella enteritidis (NCTC 4776), and Candida albicans (PCM 2566-FY). The microbial strains were bought from the Polish Collection of Microorganisms (Wroclaw, Poland) or the American Type Culture Collection. Bacteria (0.1 mL of the reconstituted suspension) were seeded onto sterile Mueller–Hinton agar plates (Biomaxima), to which previously suitable amounts of the tested compounds were added to give the desired concentration.
(§2) The MIC (minimal inhibitory concentration) was determined by serial dilution of the tested compound in an agar medium, to which the appropriate inoculum of microorganisms was then added and incubated. Escherichia coli, Pseudomonas aeruginosa, Staphylococcus aureus, Bacillus subtilis, Salmonella enteritidis, and Candida albicans were grown overnight and then resuspended in physiological saline to an optical density at 600 nm (OD = 600) of 0.60, corresponding to 5.0 × 10^8 CFU/mL. Bacteria (0.1 mL of the reconstituted suspension) were seeded onto sterile Mueller–Hinton agar plates, to which previously suitable amounts of the tested compounds were added to reach the desired concentration. Tested chemicals were dissolved in DMSO solution. Negative controls were agar plates, to which DMSO was added, while positive controls were plates with gentamycin (in the case of bacteria) or flucanozole (in the case of fungi). The plates were incubated at 37 °C for 24 h. The lowest concentration without visible bacterial growth was determined as the MIC.

[7] = tested on: Bacillus subtilis (PCM 2850); assay: MIC by serial dilution in agar medium; format: cell-based
Experimental: as §1, §2

[8] = tested on: Escherichia coli (PCM 2857); assay: MIC by serial dilution in agar medium; format: cell-based
Experimental: as §1, §2

[9] = tested on: Candida albicans (PCM 2566-FY); assay: MIC by serial dilution in agar medium; format: cell-based
Experimental: as §1, §2

[10] = tested on: Staphylococcus aureus (PCM 2267); assay: MIC by serial dilution in agar medium; format: cell-based
Experimental: as §1, §2

[11] = ref 102; cited from earlier work
[12] = MCF-7 cells (breast adenocarcinoma), read-out: Cytotoxicity (mM) in Cell Line MCF-7, IC50
[13] = MDA-MB-231 cells (breast adenocarcinoma), read-out: Cytotoxicity (mM) in Cell Line MDA-MB-231, IC50
[14] = read-out: Cytotoxicity (mM) in Cell Line MCF-7, IC50
[15] = read-out: Cytotoxicity (mM) in Cell Line MDA-MB-231, IC50

Row | Compound | CUPRAC assay: Trolox equivalent [1] [µM] | Inhibition of ABTS•+ radicals (%I) (ABTS assay) [%] | IC50 ([2]; ref 73) [µM] | FRAP [3] | pKaexp. ([4]; at 25 °C) | pKaexp. ([4]; ref 104) | pKaexp. ([4]; ref 105) | IC50 at 48 h [5, 12] [mM] | IC50 at 48 h [5, 13] [mM] | IC50 (DPPH assay) [µM] | MIC ([6]; read-out: MIC) [µg/mL] | MIC ([7]; read-out: MIC) [µg/mL] | MIC ([8]; read-out: MIC) [µg/mL] | MIC ([9]; read-out: MIC) [µg/mL] | MIC ([10]; read-out: MIC) [µg/mL] | LogPexp. [11] | IC50 ([2]; ref 68) [µM] | inhibition [2] [%] | IC50 at 48 h [5, 14] [mM] | IC50 at 48 h [5, 15] [mM] | further results
1 | O=C(O)c1cccc(O)c1O [2,3-DHB, 2,3-Dihydroxybenzoic acid] | 60.83 | 86.40 | 10.7 | 173.79 µM Fe^2+ and 173.79 ± 39.06 µM Fe^2+ | 2.91 | 2.98 | 2.56 | > 5 | 4.1 | 5.86 ± 0.64 | 5000 (≈ 32.4 mM) | 5000 (≈ 32.4 mM) | 5000 (≈ 32.4 mM) | 5000 (≈ 32.4 mM) | 5000 (≈ 32.4 mM) | 1.20 [102] | – | – | – | – | –
2 | O=C(O)c1cc(O)ccc1O [2,5-DHB, 2,5-dihydroxybenzoic acid] | 68.77 | 80.11 | 15.6 | 236.00 µM Fe^2+ and 236.00 ± 6.31 µM Fe^2+ | – | – | – | > 5 | 4.39 | 4.99 ± 0.79 | 5000 (≈ 32.4 mM) | 3000 (≈ 19.5 mM) | 3000 (≈ 19.5 mM) | 5000 (≈ 32.4 mM) | 5000 (≈ 32.4 mM) | – | ~6.5 | – | – | – | –
3 | O=C(O)c1c(O)cccc1O [2,6-DHB, 2,6-dihydroxybenzoic acid] | – | 8.12 | – | (-) * | – | 1.30 | 1.51 | > 5 | 3.97 | 209 ± 0.98 | 4000 (≈ 26 mM) | 3000 (≈ 19.5 mM) | 3000 (≈ 19.5 mM) | 3000 (≈ 19.5 mM) | 5000 (≈ 32.4 mM) | 2.20 [102] | – | – | – | – | –
4 | O=C(O)c1cc(O)c(O)c(O)c1 [3,4,5-THB, 3,4,5-trihydroxybenzoic acid] | 73.85 | 79.50 | 4.33 | 158.10 µM Fe^2+ and 158.10 ± 14.81 µM Fe^2+ | – | 4.41 | 3.94 | – | – | 2.42 ± 0.08 | 4000 (≈ 23.5 mM) | 3000 (≈ 17.6 mM) | 3000 (≈ 17.6 mM) | 3000 (≈ 17.6 mM) | 6000 (≈ 35.3 mM) | 0.70 [102] | – | ~80 | 0.44 | 0.36 | pKaexp. ([4]; ref 110): 4.40
5 | O=C(O)c1ccc(O)c(O)c1 [3,4-DHB, 3,4-dihydroxybenzoic acid] | 60.53 | 74.51 | 20.7 | 44.22 µM Fe^2+ and 44.22 ± 9.38 µM Fe^2+ | 4.26 | 4.48 | 4.16 | – | – | 5.24 ± 0.95 | – | – | – | – | – | 0.86 [102] | 10.1 | ~38 | > 5 | > 5 | MIC [6]: 2000 µg/mL (≈ 13 mM); MIC [7]: 2000 µg/mL (≈ 13 mM); MIC [8]: 2000 µg/mL (≈ 13 mM); MIC [9]: 2000 µg/mL (≈ 13 mM); MIC [10]: 2000 µg/mL (≈ 13 mM)
6 | O=C(O)c1cc(O)cc(O)c1 [3,5-DHB, 3,5-dihydroxybenzoic acid] | – | 60.39 | 41.9 | (-) * | – | 4.04 | 3.61 | > 5 | > 5 | > 1000 | 3000 (≈ 19.5 mM) | 2000 (≈ 13 mM) | 2000 (≈ 13 mM) | 2000 (≈ 13 mM) | 2000 (≈ 13 mM) | 0.86 [102] | – | – | – | – | pKaexp. ([4]; ref 108): 4.04
